Where a name gives a salt, the structure may show the parent alone.
Assays:
RON (human) = RON (human) (Homo sapiens, UniProt Q04912); experiment: RON kinase AlphaScreen assay (Km of ATP); assay type: biochemical; conditions: ATP at Km; at least duplicate experiments
Description: (§1) Person skilled in the art will appreciate that a variety of assay formats may be used to determine the activity of the compounds of this invention. For example, AlphaScreen (Amplified Luminescent Proximity Homogeneous Assay) technology was used with the kinases described below. Assay ATP concentrations for individual kinases are included in the text.
RON (human)—Km of ATP: RON assay is performed in a 384 well assay containing 200 ng/μL biotinylated poly(Glu,Tyr), 0.334 mM vanadate, desired concentration of ATP optimized for the enzyme in assay buffer (50 mM HEPES (pH=7.4), 12.5 mM MgCl2 and 1% glycerol). Desired compound is added in a final concentration of 1% DMSO with control being vehicle of DMSO alone. RON is diluted to the optimized (on a lot-by-lot basis) concentration in an enzyme diluent buffer (50 mM HEPES pH=7.4, 12.5 mM MgCl2 and 1% glycerol, 0.03% Brij35, 0.3 mM EGTA, lmM DTT, and 0.003% BSA). Enzyme is added to initiate the reaction and incubated for 30 min at RT. In subdued light, appropriate amount of PT66 donor and acceptor beads (diluted 1:260 from manufacturer's provision in a 25 mM Tris HCl (pH=7.5), 200 mM NaCl, 100 mM EDTA, 0.3% BSA buffer) are added to the wells. The plates, incubated for 1 h, are read on an AlphaQuest plate reader.

MET (human) = MET (human) (Homo sapiens, UniProt P08581); experiment: MET kinase AlphaScreen assay (Km of ATP); assay type: biochemical; conditions: ATP at Km; at least duplicate experiments
Chain of MET (human) (P08581 25-1390): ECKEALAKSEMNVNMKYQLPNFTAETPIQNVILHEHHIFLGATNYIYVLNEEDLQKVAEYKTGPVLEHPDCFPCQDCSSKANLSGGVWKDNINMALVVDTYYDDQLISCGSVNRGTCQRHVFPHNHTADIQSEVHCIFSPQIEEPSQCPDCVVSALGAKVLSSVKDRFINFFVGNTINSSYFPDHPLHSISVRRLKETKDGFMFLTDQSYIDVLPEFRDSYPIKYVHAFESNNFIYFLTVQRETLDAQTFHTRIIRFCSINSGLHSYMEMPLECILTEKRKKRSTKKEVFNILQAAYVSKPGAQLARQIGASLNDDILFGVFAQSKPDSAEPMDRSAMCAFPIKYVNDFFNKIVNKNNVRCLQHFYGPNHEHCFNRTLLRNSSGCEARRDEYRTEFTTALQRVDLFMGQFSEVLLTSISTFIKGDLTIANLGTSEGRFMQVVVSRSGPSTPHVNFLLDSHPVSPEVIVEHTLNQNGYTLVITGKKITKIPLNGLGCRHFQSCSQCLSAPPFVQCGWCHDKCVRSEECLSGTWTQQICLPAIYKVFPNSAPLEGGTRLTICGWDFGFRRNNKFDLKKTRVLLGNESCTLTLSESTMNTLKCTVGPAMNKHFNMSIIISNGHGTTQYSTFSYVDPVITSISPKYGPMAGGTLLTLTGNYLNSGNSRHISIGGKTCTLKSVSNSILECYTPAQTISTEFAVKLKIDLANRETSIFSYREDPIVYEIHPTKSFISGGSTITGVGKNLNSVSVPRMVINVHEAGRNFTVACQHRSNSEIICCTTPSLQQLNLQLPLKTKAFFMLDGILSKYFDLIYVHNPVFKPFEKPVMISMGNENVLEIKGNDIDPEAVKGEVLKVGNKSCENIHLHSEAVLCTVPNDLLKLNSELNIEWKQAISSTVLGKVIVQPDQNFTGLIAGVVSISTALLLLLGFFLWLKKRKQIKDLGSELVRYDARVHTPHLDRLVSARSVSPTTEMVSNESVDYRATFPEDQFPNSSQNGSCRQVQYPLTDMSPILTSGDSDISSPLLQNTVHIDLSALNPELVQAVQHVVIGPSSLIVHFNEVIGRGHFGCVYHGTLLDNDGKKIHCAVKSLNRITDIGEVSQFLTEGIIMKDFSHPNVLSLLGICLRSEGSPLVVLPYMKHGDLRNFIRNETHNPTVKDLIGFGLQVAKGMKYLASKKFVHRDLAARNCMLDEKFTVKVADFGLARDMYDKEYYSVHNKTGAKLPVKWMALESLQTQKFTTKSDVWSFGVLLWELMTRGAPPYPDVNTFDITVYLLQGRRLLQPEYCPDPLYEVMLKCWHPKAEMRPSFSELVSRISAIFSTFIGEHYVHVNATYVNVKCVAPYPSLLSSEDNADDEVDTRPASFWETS
Description: as §1
MET (human)—Km of ATP: MET assay is performed in a 384 well assay containing 200 ng/μL biotinylated poly(Glu,Tyr), 0.334 mM vanadate, desired concentration of ATP optimized for the enzyme in assay buffer (50 mM HEPES (pH=7.4), 5 mM MgCl2, 5 mM MnCl2, and 1% glycerol). Desired compound is added in a final concentration of 1% DMSO with control being vehicle of DMSO alone. MET is diluted to the optimized concentration (optimized on a lot-by-lot basis) in an enzyme diluent buffer (50 mM Tris pH=7.4, 1% glycerol, 0.03% Brij35, 0.24 mM EGTA, 1 mM DTT, and 0.003% BSA). Enzyme is added to initiate the reaction and incubated for 60 min at RT. In subdued light, appropriate amount of PT66 donor and acceptor beads (diluted 1:260 from manufacturer's provision in a 25 mM Tris HCl (pH=7.5), 400 mM NaCl, 100 mM EDTA, 0.3% BSA buffer) are added to the wells. The plates, incubated for 1 h, are read on an AlphaQuest plate reader

Chain of RON (human) (Q04912 25-1400): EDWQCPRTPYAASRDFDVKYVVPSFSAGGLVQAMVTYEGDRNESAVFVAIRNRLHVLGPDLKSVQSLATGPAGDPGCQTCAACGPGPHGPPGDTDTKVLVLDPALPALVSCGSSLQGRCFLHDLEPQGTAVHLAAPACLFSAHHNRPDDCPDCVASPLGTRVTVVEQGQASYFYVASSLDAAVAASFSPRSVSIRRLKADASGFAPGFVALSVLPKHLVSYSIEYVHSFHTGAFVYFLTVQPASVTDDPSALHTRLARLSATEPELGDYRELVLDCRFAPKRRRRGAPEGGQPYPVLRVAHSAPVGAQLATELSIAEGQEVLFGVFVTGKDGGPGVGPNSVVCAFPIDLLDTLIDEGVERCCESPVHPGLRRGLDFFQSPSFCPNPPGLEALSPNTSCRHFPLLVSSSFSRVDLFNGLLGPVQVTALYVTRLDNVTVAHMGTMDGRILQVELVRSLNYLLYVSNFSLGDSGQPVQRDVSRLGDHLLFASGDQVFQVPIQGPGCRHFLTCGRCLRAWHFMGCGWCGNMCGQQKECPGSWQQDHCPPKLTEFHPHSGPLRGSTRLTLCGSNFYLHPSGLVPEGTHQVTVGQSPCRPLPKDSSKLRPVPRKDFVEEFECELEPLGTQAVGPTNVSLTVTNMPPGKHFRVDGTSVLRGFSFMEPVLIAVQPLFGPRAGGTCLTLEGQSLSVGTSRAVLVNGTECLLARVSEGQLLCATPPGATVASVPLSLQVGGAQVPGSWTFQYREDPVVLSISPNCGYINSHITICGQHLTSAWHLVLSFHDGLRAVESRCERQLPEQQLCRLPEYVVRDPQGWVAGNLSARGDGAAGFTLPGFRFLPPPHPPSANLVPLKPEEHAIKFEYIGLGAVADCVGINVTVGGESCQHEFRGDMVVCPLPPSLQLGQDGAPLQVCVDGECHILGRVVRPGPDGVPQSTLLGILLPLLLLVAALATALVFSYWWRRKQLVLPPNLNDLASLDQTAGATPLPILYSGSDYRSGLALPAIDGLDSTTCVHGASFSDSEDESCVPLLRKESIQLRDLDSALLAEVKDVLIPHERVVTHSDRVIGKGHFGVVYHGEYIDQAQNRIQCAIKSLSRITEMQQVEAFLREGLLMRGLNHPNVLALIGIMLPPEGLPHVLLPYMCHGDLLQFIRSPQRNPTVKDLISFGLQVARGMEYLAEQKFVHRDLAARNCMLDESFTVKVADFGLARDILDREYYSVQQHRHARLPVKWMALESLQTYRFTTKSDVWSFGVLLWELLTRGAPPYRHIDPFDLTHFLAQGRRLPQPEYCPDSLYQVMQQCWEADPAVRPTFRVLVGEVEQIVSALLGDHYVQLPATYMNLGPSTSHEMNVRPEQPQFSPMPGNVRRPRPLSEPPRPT

## Nc1ncc(-c2cnn([C@@H]3CNC(CO)C3)c2)cc1-c1nc2ccccc2s1 (mixture of isomers) [Example 180, {(S)-4-[4-(6-Amino-5-benzothiazol-2-ylpyridin-3-yl)-pyrazol-1-yl]-pyrrolidin-2-yl}-methanol]
RON (human)
  IC50: 0.1 to 1 µM
MET (human)
  IC50: ≤ 0.1 µM

## Cc1nc(-c2cc(-c3cnn(C4CCNCC4)c3)cnc2N)cc2ccccc12 [Example 1, 3-(1-Methylisoquinolin-3-yl)-5-(1-piperidin-4-yl-1H-pyrazol-4-yl)-pyridin-2-ylamine trihydrochloride]
RON (human)
  IC50: 1 to 20 µM
MET (human)
  IC50: 1 to 20 µM

## Cc1c(-c2cc(-c3cnn(C4CCNCC4)c3)cnc2N)ncc2ccccc12 [Example 2, 3-(4-Methylisoquinolin-3-yl)-5-(1-piperidin-4-yl-1H-pyrazol-4-yl)-pyridin-2-ylamine trihydrochloride]
RON (human)
  IC50: > 20 µM
MET (human)
  IC50: 1 to 20 µM

## Nc1ncc(-c2cnn(C3CCNCC3)c2)cc1-c1cc2cccc(Cl)c2cn1 [Example 3, 3-(8-Chloroisoquinolin-3-yl)-5-(1-piperidin-4-yl-1H-pyrazol-4-yl)-pyridin-2-ylamine trihydrochloride]
RON (human)
  IC50: ≤ 0.1 µM
MET (human)
  IC50: ≤ 0.1 µM

## Cc1ccc2cnc(-c3cc(-c4cnn(C5CCNCC5)c4)cnc3N)cc2c1 [Example 4, 3-(6-Methylisoquinolin-3-yl)-5-(1-piperidin-4-yl-1H-pyrazol-4-yl)-pyridin-2-ylamine trihydrochloride]
RON (human)
  IC50: 1 to 20 µM
MET (human)
  IC50: 0.1 to 1 µM

## Cc1cccc2cc(-c3cc(-c4cnn(C5CCNCC5)c4)cnc3N)ncc12 [Example 5, 3-(8-Methylisoquinolin-3-yl)-5-(1-piperidin-4-yl-1H-pyrazol-4-yl)-pyridin-2-ylamine trihydrochloride]
RON (human)
  IC50: 0.1 to 1 µM
MET (human)
  IC50: 0.1 to 1 µM

## Cc1ccc(F)c2cnc(-c3cc(-c4cnn(C5CCNCC5)c4)cnc3N)cc12 [Example 6, 3-(8-Fluoro-5-methylisoquinolin-3-yl)-5-(1-piperidin-4-yl-1H-pyrazol-4-yl)-pyridin-2-ylamine trihydrochloride]
RON (human)
  IC50: 0.1 to 1 µM
MET (human)
  IC50: 0.1 to 1 µM

## Nc1ncc(-c2cnn(C3CCNCC3)c2)cc1-c1cc2c(Br)ccc(F)c2cn1 [Example 7, 3-(5-Bromo-8-fluoroisoquinolin-3-yl)-5-(1-piperidin-4-yl-1H-pyrazol-4-yl)-pyridin-2-ylamine trihydrochloride]
RON (human)
  IC50: 0.1 to 1 µM
MET (human)
  IC50: ≤ 0.1 µM

## Nc1ncc(-c2cnn(C3CCNCC3)c2)cc1-c1ncc2ccccc2c1F [Example 8, 3-(4-Fluoroisoquinolin-3-yl)-5-(1-piperidin-4-yl-1H-pyrazol-4-yl)-pyridin-2-ylamine trihydrochloride]
RON (human)
  IC50: 1 to 20 µM
MET (human)
  IC50: 1 to 20 µM

## Nc1ncc(-c2cnn(C3CCNCC3)c2)cc1-c1cc2c(Cl)ccc(Cl)c2cn1 [Example 9, 3-(5,8-Dichloroisoquinolin-3-yl)-5-(1-piperidin-4-yl-1H-pyrazol-4-yl)-pyridin-2-ylamine trihydrochloride]
RON (human)
  IC50: 0.1 to 1 µM
MET (human)
  IC50: ≤ 0.1 µM

## Nc1ncc(-c2cnn(C3CCNCC3)c2)cc1-c1cc2c(F)ccc(F)c2cn1 [Example 10, 3-(5,8-Difluoroisoquinolin-3-yl)-5-(1-piperidin-4-yl-1H-pyrazol-4-yl)-pyridin-2-ylamine trihydrochloride]
RON (human)
  IC50: 1 to 20 µM
MET (human)
  IC50: 0.1 to 1 µM

## Nc1ncc(-c2cnn(C3CCNCC3)c2)cc1-c1cc2c(Cl)ccc(F)c2cn1 [Example 11, 3-(5-Chloro-8-fluoroisoquinolin-3-yl)-5-(1-piperidin-4-yl-1H-pyrazol-4-yl)-pyridin-2-ylamine trihydrochloride]
RON (human)
  IC50: 0.1 to 1 µM
MET (human)
  IC50: ≤ 0.1 µM

## COc1ccc(Cl)c2cc(-c3cc(-c4cnn(C5CCNCC5)c4)cnc3N)ncc12 [Example 12, 4-{4-[6-Amino-5-(5-chloro-8-methoxyisoquinolin-3-yl)-pyridin-3-yl]-pyrazol-1-yl}-piperidine trihydrochloride]
RON (human)
  IC50: 1 to 20 µM
MET (human)
  IC50: 0.1 to 1 µM

## Nc1ncc(-c2cnn(C3CCNCC3)c2)cc1-c1cc2ccccc2cn1 [Example 13, 3-Isoquinolin-3-yl-5-(1-piperidin-4-yl-1H-pyrazol-4-yl)-pyridin-2-ylamine trihydrochloride]
RON (human)
  IC50: 1 to 20 µM
MET (human)
  IC50: 0.1 to 1 µM

## Nc1ncc(-c2cnn(C3CCNCC3)c2)cc1-c1cc2ccc(OC(F)(F)F)cc2cn1 [Example 14, 5-(1-Piperidin-4-yl-1H-pyrazol-4-yl)-3-(7-trifluoromethoxy-isoquinolin-3-yl)-pyridin-2-ylamine trihydrochloride]
RON (human)
  IC50: 1 to 20 µM
MET (human)
  IC50: 1 to 20 µM

## Nc1ncc(-c2cnn(C3CCNCC3)c2)cc1-c1cc2c(Cl)c(F)cc(F)c2cn1 [Example 15, 3-(5-Chloro-6,8-difluoroisoquinolin-3-yl)-5-(1-piperidin-4-yl-1H-pyrazol-4-yl)-pyridin-2-ylamine trihydrochloride salt]
RON (human)
  IC50: 0.1 to 1 µM
MET (human)
  IC50: ≤ 0.1 µM

## Nc1ncc(-c2cnn(C3CCNCC3)c2)cc1-c1cc2cc(C(F)(F)F)ccc2cn1 [Example 16, 5-(1-Piperidin-4-yl-1H-pyrazol-4-yl)-3-(6-trifluoromethylisoquinolin-3-yl)-pyridin-2-ylamine trihydrochloride salt]
RON (human)
  IC50: 0.1 to 1 µM
MET (human)
  IC50: 0.1 to 1 µM

## Nc1ncc(-c2cnn(C3CCNCC3)c2)cc1-c1cc2ccc(C(F)(F)F)cc2cn1 [Example 17, 5-(1-Piperidin-4-yl-1H-pyrazol-4-yl)-3-(7-trifluoromethylisoquinolin-3-yl)-pyridin-2-ylamine tri-hydrochloride salt]
RON (human)
  IC50: 0.1 to 1 µM
MET (human)
  IC50: 0.1 to 1 µM

## Nc1ncc(-c2cnn(C3CCNCC3)c2)cc1-c1cc2c(C(F)(F)F)cccc2cn1 [Example 18, 5-(1-Piperidin-4-yl-1H-pyrazol-4-yl)-3-(5-trifluoromethylisoquinolin-3-yl)-pyridin-2-ylamine trihydrochloride salt]
RON (human)
  IC50: 0.1 to 1 µM
MET (human)
  IC50: 0.1 to 1 µM

## Nc1ncc(-c2cnn(C3CCNCC3)c2)cc1-c1cc2cccc(C(F)(F)F)c2cn1 [Example 19, 5-(1-Piperidin-4-yl-1H-pyrazol-4-yl)-3-(8-trifluoromethylisoquinolin-3-yl)-pyridin-2-ylamine trihydrochloride salt]
RON (human)
  IC50: 0.1 to 1 µM
MET (human)
  IC50: 0.1 to 1 µM

## Cc1ccc(C)c2cc(-c3cc(-c4cnn(C5CCNCC5)c4)cnc3N)ncc12 [Example 20, 3-(5,8-Dimethylisoquinolin-3-yl)-5-(1-piperidin-4-yl-1H-pyrazol-4-yl)-pyridin-2-ylamine trihydrochloride salt]
RON (human)
  IC50: 0.1 to 1 µM
MET (human)
  IC50: 0.1 to 1 µM

## Nc1ncc(-c2cnn(C3CCNCC3)c2)cc1-c1cc2ccc(Br)cc2cn1 [Example 21, 3-(7-Bromoisoquinolin-3-yl)-5-(1-piperidin-4-yl-1H-pyrazol-4-yl)-pyridin-2-ylamine trihydrochloride salt]
RON (human)
  IC50: 1 to 20 µM
MET (human)
  IC50: 0.1 to 1 µM

## Nc1ncc(-c2cnn(C3CCNCC3)c2)cc1-c1cc2c(Br)cccc2cn1 [Example 22, 3-(5-Bromoisoquinolin-3-yl)-5-(1-piperidin-4-yl-1H-pyrazol-4-yl)-pyridin-2-ylamine trihydrochloride salt]
RON (human)
  IC50: 1 to 20 µM
MET (human)
  IC50: 0.1 to 1 µM

## Nc1ncc(-c2cnn(C3CCNCC3)c2)cc1-c1cc2cc(Br)ccc2cn1 [Example 23, 3-(6-Bromoisoquinolin-3-yl)-5-(1-piperidin-4-yl-1H-pyrazol-4-yl)-pyridin-2-ylamine trihydrochloride salt]
RON (human)
  IC50: 0.1 to 1 µM
MET (human)
  IC50: 0.1 to 1 µM

## Nc1ncc(-c2cnn(C3CCNCC3)c2)cc1-c1cc2cccc(Br)c2cn1 [Example 24, 3-(8-Bromoisoquinolin-3-yl)-5-(1-piperidin-4-yl-1H-pyrazol-4-yl)-pyridin-2-ylamine trihydrochloride salt]
RON (human)
  IC50: 0.1 to 1 µM
MET (human)
  IC50: 0.1 to 1 µM

## Nc1ncc(-c2cnn(C3CCNCC3)c2)cc1-c1cc2cc(-c3ccccc3)ccc2cn1 [Example 25, 3-(6-Phenylisoquinolin-3-yl)-5-(1-piperidin-4-yl-1H-pyrazol-4-yl)-pyridin-2-ylamine tri-hydrochloride salt]
RON (human)
  IC50: 0.1 to 1 µM
MET (human)
  IC50: 0.1 to 1 µM

## Nc1ncc(-c2cnn(C3CCNCC3)c2)cc1-c1cc2ccc(-c3ccccc3)cc2cn1 [Example 26, 3-(7-Phenylisoquinolin-3-yl)-5-(1-piperidin-4-yl-1H-pyrazol-4-yl)-pyridin-2-ylamine tri-hydrochloride salt]
RON (human)
  IC50: 0.1 to 1 µM
MET (human)
  IC50: 0.1 to 1 µM

— patent publication US8178668B2, “2-aminopyridine kinase inhibitors” (OSI Pharmaceuticals, LLC, priority 2008, dated 2012)
